Measured values taken from article PMC9229564 (Viruses, 2022).
“Also recorded” adds a separate entry of the source. Like-named read-outs stand apart in the source and are kept apart here.

Columns and labels:
SK1 and SK2 = test system: SK1 and SK2; set-up: method as in earlier work; details: yeast assay; more potent at SK1 than SK2; cited from earlier work
human SK1 = human SK1 (Homo sapiens, UniProt Q9NYA1); assay: SK1 inhibition (Ki); assay type: biochemical
human SK2 = target: T1, human SK2 (Homo sapiens, UniProt Q9NRA0); assay: SK2 inhibition (Ki); assay type: biochemical
T1 sequence (Q9NRA0 1-654): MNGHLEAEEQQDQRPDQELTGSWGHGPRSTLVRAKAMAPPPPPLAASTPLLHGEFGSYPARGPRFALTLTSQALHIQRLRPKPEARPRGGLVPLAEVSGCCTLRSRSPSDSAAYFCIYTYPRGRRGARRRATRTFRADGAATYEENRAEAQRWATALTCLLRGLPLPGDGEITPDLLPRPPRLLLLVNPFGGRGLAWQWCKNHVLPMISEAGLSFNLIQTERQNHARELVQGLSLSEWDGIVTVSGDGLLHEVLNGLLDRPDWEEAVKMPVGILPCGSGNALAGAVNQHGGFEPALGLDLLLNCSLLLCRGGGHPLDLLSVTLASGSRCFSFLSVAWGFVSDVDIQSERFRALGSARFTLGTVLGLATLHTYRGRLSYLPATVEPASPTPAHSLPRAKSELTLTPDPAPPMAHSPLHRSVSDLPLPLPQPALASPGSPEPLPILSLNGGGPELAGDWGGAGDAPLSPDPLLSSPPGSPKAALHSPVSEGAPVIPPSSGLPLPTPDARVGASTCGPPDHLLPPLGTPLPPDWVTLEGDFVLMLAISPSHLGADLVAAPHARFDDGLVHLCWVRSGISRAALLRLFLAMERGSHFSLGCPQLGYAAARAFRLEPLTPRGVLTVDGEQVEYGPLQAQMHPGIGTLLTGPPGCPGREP

CHIKV [1] = assay: CHIKV infection of HeLa cells, immunofluorescence high-content imaging; assay type: cell-based, Chikungunya virus (clone 181/25); details: for inhibition of CHIKV infection (nsP3 expression), screen: 20 µM, cutoff at least 50% inhibition with at least 75% cell viability; for EC50: HeLa cells, CHIKV infection, increasing concentration of inhibitor
CHIKV [2] = assay: qRT-PCR of viral nsP1 expression in CHIKV-infected HeLa cells; assay type: cell-based, Chikungunya virus (clone 181/25); details: 20 µM, 1 h pre-treatment, MOI 1, 24 h
CHIKV [3] = assay: plaque assay of infectious virus release (supernatants on Vero E6 cells); assay type: cell-based, Chikungunya virus (clone 181/25); details: 25 µM, supernatant 24 h post-infection, plaques on Vero E6 over 72 h
HeLa cells = assay: virus-free cell viability assay; assay type: cell-based
CHIKV [4] = details: previous work; cited from earlier work
[5] = 1 h pre-treatment, HeLa, MOI = 1, 24 h

Sequence of human SK1 (Q9NYA1 whole entry): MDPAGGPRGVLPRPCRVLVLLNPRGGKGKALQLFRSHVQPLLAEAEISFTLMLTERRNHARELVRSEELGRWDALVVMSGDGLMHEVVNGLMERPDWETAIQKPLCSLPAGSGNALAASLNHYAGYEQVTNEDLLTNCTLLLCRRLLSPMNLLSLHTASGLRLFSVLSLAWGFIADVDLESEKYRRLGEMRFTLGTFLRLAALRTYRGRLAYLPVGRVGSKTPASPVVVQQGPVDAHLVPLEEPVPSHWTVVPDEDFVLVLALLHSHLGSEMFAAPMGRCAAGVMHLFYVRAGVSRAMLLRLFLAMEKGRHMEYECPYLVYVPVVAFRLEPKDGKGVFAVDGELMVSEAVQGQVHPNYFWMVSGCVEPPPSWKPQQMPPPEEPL

Question: Which results are given for `CCCCCOc1ccc2cc(-c3noc([C@@H]4[C@@H](O)CCN4C(=N)N)n3)ccc2c1` [SLC5111312]?
Answer: potency at SK1 relative to SK2 (SK1 and SK2): 2 fold; Ki (human SK1): 0.36 ± 0.09 µM; Ki (human SK2): 0.33 ± 0.07 µM; inhibition of CHIKV infection (nsP3 expression), screen (CHIKV [1]; [5]): significantly inhibited CHIKV infection; EC50 (CHIKV [1]; Chikungunya virus, HeLa): 11.8 µM

Question: With `CCCCCCCCCCCCc1ccc(CN2CCCC2CO)cc1` (stereo not drawn) [SLL3071511] as the compound, how does the “viral nsP1 expression” value (CHIKV [2]) read?
Answer: significantly diminished

Question: What about the “plaque counts (infectious virus release)” value (CHIKV [3]) of the same compound?
Answer: significantly diminished

Question: And the non-toxic concentration (HeLa cells)?
Answer: up to 50 µM

Question: And the Ki (human SK2; read-out: SK2 Ki)?
Answer: 0.66 ± 0.11 µM

Question: What about the “inhibition of CHIKV infection (nsP3 expression), screen” value (CHIKV [1]; [5]) of the same compound?
Answer: significantly inhibited CHIKV infection

Question: What about the “viral glycoprotein (E2) expression” value (CHIKV [1]; 1 h pre-treatment, HeLa, MOI = 1, 24 h, Supplementary Figure S3) of the same compound?
Answer: decreased

Question: And the EC50 (CHIKV [1]; Chikungunya virus, HeLa)?
Answer: 2.9 µM

Question: And the EC50 (CHIKV [1])?
Answer: 2.91 µM

Question: What about the “anti-CHIKV activity at higher MOI” value (CHIKV [1]; HeLa, MOI = 10, 24 h) of the same compound?
Answer: retained significant anti-CHIKV activity

Question: And the “timing of effective inhibition of CHIKV infection” value (CHIKV [1]; treatment 1 h before, along with or 1 h after infection, MOI 1)?
Answer: highest inhibitory effect occurring when the compound is used prior to infection; also recorded: maximal inhibition occurring when SLL3071511 is added prior to infection

Question: Which results are given for `N=C(N)N1CCC[C@H]1Cc1nc(-c2ccc(Oc3nc(Br)cs3)cc2)no1` [SLC4091425]?
Answer: Ki (human SK1; read-out: SK1 Ki): > 3 µM; Ki (human SK2; read-out: SK2 Ki): > 3 µM; inhibition of CHIKV infection (nsP3 expression), screen (CHIKV [1]; [5]): significantly inhibited CHIKV infection; EC50 (CHIKV [1]; Chikungunya virus, HeLa): 3.35 µM

Question: For `O=C(NCc1ccncc1)C12CC3CC(C1)CC(c1ccc(Cl)cc1)(C3)C2` [ABC294640], which “timing of effective inhibition of CHIKV infection” value (CHIKV [4]) is on record?
Answer: most effective at inhibiting CHIKV infection

Question: Which results are given for `CCCCCCCCCCCCc1ccc(CN(C)C2CCCC2O)cc1` (stereo not drawn) [SLL3041783]?
Answer: Ki (human SK1; read-out: SK1 Ki): 2.4 ± 0.61 µM; Ki (human SK2; read-out: SK2 Ki): > 3 µM; inhibition of CHIKV infection (nsP3 expression), screen (CHIKV [1]; [5]): significantly inhibited CHIKV infection; EC50 (CHIKV [1]; Chikungunya virus, HeLa): 3.33 µM
